Laboratory results reported in patent EP4818187A1, “COMPOUND AND USE THEREOF” (Ganzhou Hemay Pharmaceutical, Co., Ltd, priority 2023, dated 2025).
pIC50: −log10 of the molar value.

Tests used:
[1] = system: HCT116 (human colorectal cancer); experiment: In vitro inhibitory effect against human tumor cells (MTT); assay type: cell-based; settings: HCT-116, 72 h, 3 days
Procedure: (§1) Cells were cultured with 5% CO2 at 37°C and saturated humidity until they reached a logarithmic growth phase (usually adherent cells were nearly fully confluent). After removing adherent cells by trypsin/EDTA digestion, the cells were collected for subsequent experiments.
(§2) The cells were inoculated into a 96-well cell culture plate (hereinafter referred to as the 96-well plate) based on the cell count shown in Table 2, cultured overnight to achieve cell adherence, and then, after different concentrations of the test compound were added, further cultured for a total of 3 days. Finally, the total cell protein in the assay wells was assayed by SRB, or the cell viability was assessed by MTT:
(§3) 2.2 Assaying cell viability by MTT: the modification is based on the method in the literature (J. Carmichael, W. DeGraff, A. Gazdar et al., Evaluation of a tetrazolium-based semiautomated colorimetric assay: assessment of chemosensitivity testing. Cancer Research. 1987, 47: 936-942). Specific method: For well-adherent cells: the medium was pipetted out, 100 µL of a basal medium containing 0.5 mg/mL MTT (medium free of fetal bovine serum (FBS) and other additives) was added to each well, and culture was continued for additional 3 h. The MTT-containing basal medium was pipetted out, and 100 µL of DMSO was added to each well to dissolve formazan, followed by assay at a wavelength of 490 nm.
(§4) For poorly-adherent cells: MTT solution was directly added to a concentration of 0.5 mg/mL, culture was continued for additional 3 h, and an equal volume of triple solvent was added to the system to dissolve formazan, followed by assay at a wavelength of 570 nm.
(§5) 2.3: 1-2 mg of β-glucuronidase was weighed, and dissolved in PBS to prepare 2 mg/mL stock solution. Prior to use, the stock solution was diluted with a complete medium to prepare 12.5 µg/mL enzyme working solution. For assay wells requiring the enzyme, 80 µL of the enzyme working solution was added, with the β-glucuronidase at a concentration of 1 µg/well; and for assay wells not requiring the enzyme, 80 µL of the complete medium was added.
(§6) 1-3 mg of the test compound was weighed, and dissolved in DMSO to prepare 20 mM stock solution. The stock solution was diluted in a 3-fold gradient with DMSO, then diluted 100-fold with RPMI1640 basal medium to obtain 10× working solutions, with a total of 8 concentrations. 20 µL of the 10× working solutions were add to the assay wells, with the final volume of each well of 200 µL, and with the DMSO at a concentration of 0.1%.
(§7) 2.4 Calculation of inhibitory activity of compound: the experiment includes a compound test group, a compound-free positive solvent control group (PC), and a negative solvent control group (NC) without cells and the compound. Inhibition rate = [1−(testvalue−NCmean)/(PCmean−NCmean)] × 100% [formula]
(§8) The mean and SD of the inhibition rate were obtained from replicate assay wells. A curve was plotted with the compound concentrations distributed in a logarithmic form as the abscissa and with the mean inhibition rates as the ordinate, and was fitted with a 4-parameter logistic equation. The compound concentration corresponding to 50% inhibition rate on the curve is the IC50 value. Table 2: Culture medium formulation and cell inoculation concentration for human tumor cell lines

[2] = system: NCI-H1975 (human non-small cell lung cancer); experiment: as above; assay type: cell-based; settings: NCI-H1975, 72 h, 3 days
Procedure: as §1, §2, §3, §4, §5, §6, §7, §8

[3] = system: Fadu (human pharyngeal squamous cell carcinoma); experiment: as above; assay type: cell-based; settings: 72 h, 3 days
Procedure: as §1, §2, §3, §4, §5, §6, §7, §8

[4] = system: SK-OV-3 (human ovarian cancer); experiment: as above; assay type: cell-based; settings: SK-OV-3, 72 h, SK-OV-3, MTT, 3 days
Procedure: as §1, §2, §3, §4, §5, §6, §7, §8

[5] = system: human non-small cell lung cancer NCI-H1975; experiment: Biological Example 10: in vivo xenograft model of human non-small cell lung cancer NCI-H1975; design: species or system Balb/c-nu nude mice; settings: nude mice; for Final body weight change (%) / Maximum body weight change (%) / Relative volume RTV (x±S.D.) / T/C (%) / Tumor inhibition rate (%) / Tumor weight (g, x±S.D.): 0.4 mg/kg i.v. qw×2; for Body weight (g, x±S.D.) End 24d: 0.4 mg/kg i.v. qw×2, End 24d; for Body weight (g, x±S.D.) Start: 0.4 mg/kg i.v. qw×2, Start
[6] = system: human ovarian cancer SK-OV-3; experiment: Biological Example 5: in vivo xenograft model of human ovarian cancer SK-OV-3; design: species or system Balb/c-nu nude mice; settings: SK-OV-3 xenograft, nude mice, 0.8 mg/kg i.v. qw×3
[7] = system: human non-small cell lung cancer NCI-H1975; experiment: Biological Example 7: in vivo xenograft model of human non-small cell lung cancer NCI-H1975; design: species or system Balb/c-nu nude mice; settings: nude mice; for Final body weight change (%) / Maximum body weight change (%) / Relative volume RTV (x±S.D.) / T/C (%) / Tumor inhibition rate (%) / Tumor weight (g, x±S.D.): 0.8 mg/kg i.v. qw×3; for Body weight (g, x±S.D.) End: 0.8 mg/kg i.v. qw×3, End; for Body weight (g, x±S.D.) Start: 0.8 mg/kg i.v. qw×3, Start
[8] = system: 22RV1 (human prostate cancer); experiment: In vitro inhibitory effect against human tumor cells (SRB); assay type: cell-based; settings: 22Rv1, 72 h, 22RV1, SRB, 3 days
Procedure: as §1, §2
(§9) 2.1 Assaying total cell protein by SRB: the modification is based on the method in the literature (V. Vichai and K. Kirtikara. Sulforhodamine B colorimetric assay for cytotoxicity screening. Nature Protocols. 2006, 1: 1112-1116). Specific method: the culture medium was pipetted out from the wells, the cells were fixed with 10% trichloroacetic acid for more than 1 h, and trichloroacetic acid was removed; the cells were washed with H2O, and stained with 0.4% SRB for 15-30 min; after excess SRB was removed, the cells were washed with 1% acetic acid; 100 µl of 10 mM tris(trihydroxymethylaminomethane) was added to dissolve the protein-bound SRB, followed by assay at a wavelength of 570 nm.
as §5, §6, §7, §8

[9] = system: A375 (human malignant melanoma); experiment: as above; assay type: cell-based; settings: A-375, 72 h, 3 days
Procedure: as §1, §2, §9, §5, §6, §7, §8

[10] = system: HepG2 (human liver cancer cell); experiment: as above; assay type: cell-based; settings: HepG2, 72 h, 3 days
Procedure: as §1, §2, §9, §5, §6, §7, §8

[11] = system: BxPC-3 (human pancreatic cancer in situ); experiment: In vitro inhibitory effect against human tumor cells (MTT or SRB); assay type: cell-based; settings: BXPC-3, 72 h, BxPC-3, test method printed MTT (head: SRB), 3 days
Procedure: as §1, §2, §9, §3, §4, §5, §6, §7, §8

[12] = With addition of βGU (1 µg/well)

Structure (SMILES) | pIC50 [1, 12] | pIC50 ([1]; βGU-free) | pIC50 [2, 12] | pIC50 ([2]; βGU-free) | pIC50 [3, 12] | pIC50 ([3]; βGU-free) | pIC50 [4, 12] | pIC50 ([4]; βGU-free) | Final body weight change (%) [5] | Maximum body weight change (%) [5] | Relative volume RTV (x±S.D.) [5] | T/C (%) [5] | Tumor inhibition rate (%) [5] | Tumor weight (g, x±S.D.) [5] | Body weight (g, x±S.D.) End 24d [5] | Body weight (g, x±S.D.) Start [5] | Final body weight change (%) [6] | Maximum body weight change (%) [6] | Relative volume RTV (x±S.D.) [6] | T/C (%) [6] | further results
CC[C@H](C)[C@@H]([C@@H](CC(=O)N1CCC[C@H]1[C@H](OC)[C@@H](C)C(=O)N[C@H](C)[C@@H](O)c1ccccc1)OC)N(C)C(=O)[C@@H](NC(=O)[C@H](C(C)C)[N+](C)(C)Cc1ccc(O[C@@H]2O[C@H](C(=O)[O-])[C@@H](O)[C@H](O)[C@H]2O)cc1OCc1cn(CCCOCC(=O)Nc2ccc(-c3ccc(/N=N/c4ccc5c(S(=O)(=O)[O-])cc(S(=O)(=O)[O-])c(N)c5c4O)c(C)c3)cc2C)nn1)C(C)C.[Na+].[Na+] [Example compound 10] | 8.47 | 7.06 | 8.72 | 7.30 | 9.19 | 7.85 | 8.57 | 7.13 | 4.6% | 4.6, d28% | 0.26±0.02 | 5.2% | 95.7% | 0.047 ± 0.020 g | 22.9 ± 0.8 g | 21.9 ± 1.3 g | 4.3% | 4.4, d18% | 0.37±0.73 | 3.2% | Tumor inhibition rate (%) [6]: 97.9%; Tumor weight (g, x±S.D.) [6]: 0.035 ± 0.077 g; Body weight (g, x±S.D.) End [6]: 24.7 ± 0.9 g; Body weight (g, x±S.D.) Start [6]: 23.7 ± 1.1 g; Final body weight change (%) [7]: 10.2%; Maximum body weight change (%) [7]: 10.2, d21%; Relative volume RTV (x±S.D.) [7]: 0.66±0.23; T/C (%) [7]: 4.6%; Tumor inhibition rate (%) [7]: 97.7%; Tumor weight (g, x±S.D.) [7]: 0.041 ± 0.022 g; Body weight (g, x±S.D.) End [7]: 26.0 ± 1.0 g; Body weight (g, x±S.D.) Start [7]: 23.7 ± 1.3 g; pIC50 [8, 12]: 8.36; pIC50 ([8]; βGU-free): 7.03; pIC50 [9, 12]: 8.85; pIC50 ([9]; βGU-free): 7.48; pIC50 [10, 12]: 8.39; pIC50 ([10]; βGU-free): 7.03; pIC50 [11, 12]: 9.15; pIC50 ([11]; βGU-free): 7.54
CC[C@H](C)[C@@H]([C@@H](CC(=O)N1CCC[C@H]1[C@H](OC)[C@@H](C)C(=O)N[C@H](C)[C@@H](O)c1ccccc1)OC)N(C)C(=O)[C@@H](NC(=O)[C@H](C(C)C)[N+](C)(CC)Cc1ccc(O[C@@H]2O[C@H](C(=O)[O-])[C@@H](O)[C@H](O)[C@H]2O)cc1OCc1cn(CCCCCC(=O)Nc2ccc(-c3ccc(/N=N/c4ccc5c(S(=O)(=O)[O-])cc(S(=O)(=O)[O-])c(N)c5c4O)c(C)c3)cc2C)nn1)C(C)C.[Na+].[Na+] (some centres unmarked) [Example compound 12] | 8.80 | 7.08 | 8.92 | 7.13 | 9.68 | 7.44 | 8.96 | 7.43 | 5.7% | 5.7, d28% | 0.44±0.06 | 8.8% | 92.1% | 0.086 ± 0.009 g | 23.1 ± 0.7 g | 21.8 ± 0.6 g | 4.4% | 4.4, d21% | 0.07±0.04 | 0.6% | Tumor inhibition rate (%) [6]: 99.7%; Tumor weight (g, x±S.D.) [6]: 0.005 ± 0.001 g; Body weight (g, x±S.D.) End [6]: 25.1 ± 1.4 g; Body weight (g, x±S.D.) Start [6]: 24.1 ± 1.2 g; Final body weight change (%) [7]: 5.8%; Maximum body weight change (%) [7]: 5.8, d21%; Relative volume RTV (x±S.D.) [7]: 0.46±0.35; T/C (%) [7]: 3.2%; Tumor inhibition rate (%) [7]: 97.8%; Tumor weight (g, x±S.D.) [7]: 0.039 ± 0.039 g; Body weight (g, x±S.D.) End [7]: 25.6 ± 2.4 g; Body weight (g, x±S.D.) Start [7]: 24.1 ± 1.6 g; pIC50 [8, 12]: 8.60; pIC50 ([8]; βGU-free): 7.11; pIC50 [9, 12]: 9.00; pIC50 ([9]; βGU-free): 7.30; pIC50 [10, 12]: 8.52; pIC50 ([10]; βGU-free): 6.97; pIC50 [11, 12]: 9.28; pIC50 ([11]; βGU-free): 7.55
